Laboratory results taken from US8269015B2, “4-azetidinyl-1-heteroaryl-cyclohexane antagonists of CCR2” (Janssen Pharmaceutica N.V., priority 2009, dated 2012).
pIC50: −log10 of the molar value.

Target: T1, CCR2 (Homo sapiens, UniProt P41597)
T1 construct: host or cells: THP-1 (human monocytic cell line)
T1 sequence (P41597 1-360 isoform P41597-2): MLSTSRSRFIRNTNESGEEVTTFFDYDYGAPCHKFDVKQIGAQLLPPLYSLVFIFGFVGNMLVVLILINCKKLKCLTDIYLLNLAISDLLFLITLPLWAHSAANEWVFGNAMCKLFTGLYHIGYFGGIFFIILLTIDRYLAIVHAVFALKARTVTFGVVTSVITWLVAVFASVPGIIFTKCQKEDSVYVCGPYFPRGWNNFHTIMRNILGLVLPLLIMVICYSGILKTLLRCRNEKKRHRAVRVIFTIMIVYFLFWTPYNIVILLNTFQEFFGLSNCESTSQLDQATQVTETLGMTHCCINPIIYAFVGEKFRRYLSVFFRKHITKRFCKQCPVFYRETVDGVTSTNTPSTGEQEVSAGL
Assay: MCP-1 Receptor Binding Assay in THP-1 Cells (125I labeled MCP-1)
Settings: 0.5 nM 125I labeled MCP-1, 2 hours at 30° C., read-out: Inhibition of MCP-1 Binding IC50, CCR2 Binding
Description: Compounds of the invention were subjected to various representative biological tests. […] MCP-1 Receptor Binding Assay in THP-1 Cells
Human monocytic cell line THP-1 cells were obtained from American Type Culture Collection (Manassas, Va., USA). […] The cell density was maintained […].
1 μM cold MCP-1 was used for nonspecific binding.

Row | Compound | pIC50
1 | O=C(CNC(=O)c1cccc(C(F)(F)F)c1)NC1CN(C2CCC(c3cccnc3O)CC2)C1 (centres unmarked) [Example 10, N-({1-[4-(2-Hydroxy-pyridin-3-yl)-cyclohexyl]-azetidin-3-ylcarbamoyl}-methyl)-3-trifluoromethyl-benzamide] | 6.01
2 | O=C(CNC(=O)c1cccc(C(F)(F)F)c1)NC1CN(C2CCC(c3cnccc3O)CC2)C1 (centres unmarked) [Example 11, N-({1-[4-(4-Hydroxy-pyridin-3-yl)-cyclohexyl]-azetidin-3-ylcarbamoyl}-methyl)-3-trifluoromethyl-benzamide] | 6.34
3 | O=C(CNC(=O)c1cccc(C(F)(F)F)c1)NC1CN(C2CCC(c3cc(O)ccn3)CC2)C1 (centres unmarked) [Example 12, N-({1-[4-(4-Hydroxy-pyridin-2-yl)-cyclohexyl]-azetidin-3-ylcarbamoyl}-methyl)-3-trifluoromethyl-benzamide] | < 4.60
4 | CS(=O)(=O)N(c1ccc(C2CCC(N3CC(NC(=O)CNC(=O)c4cccc(C(F)(F)F)c4)C3)CC2)nc1)S(C)(=O)=O (centres unmarked) [Example 14, N-({1-[4-(5-bis-{Methanesulfonyl}-amino-pyridin-2-yl)-cyclohexyl]-azetidin-3-ylcarbamoyl}-methyl)-3-trifluoromethyl-benzamide] | 6.55
5 | O=C(CNC(=O)c1cccc(C(F)(F)F)c1)NC1CN(C2CCC(c3ncccc3NC(=O)C(F)(F)F)CC2)C1 (centres unmarked) [Example 17, N-[(1-{4-[3-(2,2,2-Trifluoro-acetylamino)-pyridin-2-yl]-cyclohexyl}-azetidin-3-ylcarbamoyl)-methyl]-3-trifluoromethyl-benzamide] | 6.04
6 | CC(=O)Nc1cccnc1C1CCC(N2CC(NC(=O)CNC(=O)c3cccc(C(F)(F)F)c3)C2)CC1 (centres unmarked) [Example 18, N-({1-[4-(3-Acetylamino-pyridin-2-yl)-cyclohexyl]-azetidin-3-ylcarbamoyl}-methyl)-3-trifluoromethyl-benzamide] | 6.42
7 | CS(=O)(=O)Nc1cccnc1C1CCC(N2CC(NC(=O)CNC(=O)c3cccc(C(F)(F)F)c3)C2)CC1 (centres unmarked) [Example 19, N-({1-[4-(3-Methanesulfonylamino-pyridin-2-yl)-cyclohexyl]-azetidin-3-ylcarbamoyl}-methyl)-3-trifluoromethyl-benzamide] | 5.72
8 | CS(=O)(=O)Nc1cccc(C2CCC(N3CC(NC(=O)CNC(=O)c4cccc(C(F)(F)F)c4)C3)CC2)n1 (centres unmarked) [Example 26, N-({1-[4-(6-Methanesulfonylamino-pyridin-2-yl)-cyclohexyl]-azetidin-3-ylcarbamoyl}-methyl)-3-trifluoromethyl-benzamide] | 6.08
9 | CNc1ccncc1C1CCC(N2CC(NC(=O)CNC(=O)c3cccc(C(F)(F)F)c3)C2)CC1 (centres unmarked) [Example 29a, N-({1-[4-(4-Methylamino-pyridin-3-yl)-cyclohexyl]-azetidin-3-ylcarbamoyl}-methyl)-3-trifluoromethyl-benzamide] | 5.92
10 | CN(C)c1ccncc1C1CCC(N2CC(NC(=O)CNC(=O)c3cccc(C(F)(F)F)c3)C2)CC1 (centres unmarked) [Example 29b, N-({1-[4-(4-Dimethylamino-pyridin-3-yl)-cyclohexyl]-azetidin-3-ylcarbamoyl}-methyl)-3-trifluoromethyl-benzamide] | 5.00
11 | Nc1cncc(C2CCC(N3CC(NC(=O)CNC(=O)c4cccc(C(F)(F)F)c4)C3)CC2)c1 (centres unmarked) [Example 32, N-({1-[4-(5-Amino-pyridin-3-yl)-cyclohexyl]-azetidin-3-ylcarbamoyl}-methyl)-3-trifluoromethyl-benzamide] | 6.49
12 | Nc1ccnc(C2CCC(N3CC(NC(=O)CNC(=O)c4cccc(C(F)(F)F)c4)C3)CC2)c1 (centres unmarked) [Example 33, N-({1-[4-(4-Amino-pyridin-2-yl)-cyclohexyl]-azetidin-3-ylcarbamoyl}-methyl)-3-trifluoromethyl-benzamide] | 6.60

These reach a higher pIC50. Values come first.

Row | pIC50 | Compound
13 | 6.64 | CS(=O)(=O)Nc1ccc(C2CCC(N3CC(NC(=O)CNC(=O)c4cccc(C(F)(F)F)c4)C3)CC2)nc1 (centres unmarked) [Example 15, N-({1-[4-(5-Methanesulfonyl-amino-pyridin-2-yl)-cyclohexyl]-azetidin-3-ylcarbamoyl}-methyl)-3-trifluoromethyl-benzamide]
14 | 6.68 | N#CNc1cccc(C2CCC(N3CC(NC(=O)CNC(=O)c4cccc(C(F)(F)F)c4)C3)CC2)n1 (centres unmarked) [Example 25, N-({1-[4-(6-Cyanoamino-pyridin-2-yl)-cyclohexyl]-azetidin-3-ylcarbamoyl}-methyl)-3-trifluoromethyl-benzamide]
15 | 6.92 | Nc1cccc(C2CCC(N3CC(NC(=O)CNC(=O)c4cc(F)cc(C(F)(F)F)c4)C3)CC2)n1 (centres unmarked) [Example 34, N-({1-[4-(6-Amino-pyridin-2-yl)-cyclohexyl]-azetidin-3-ylcarbamoyl}-methyl)-3-fluoro-5-trifluoromethyl-benzamide]
16 | 7.02 | O=C(CNC(=O)c1cccc(C(F)(F)F)c1)NC1CN(C2CCC(c3ccc(NC(=O)C(F)(F)F)cn3)CC2)C1 (centres unmarked) [Example 16, N-[(1-{4-[5-(2,2,2-Trifluoro-acetylamino)-pyridin-2-yl]-cyclohexyl}-azetidin-3-ylcarbamoyl)-methyl]-3-trifluoromethyl-benzamide]
17 | 7.05 | CC(=O)Nc1ccc(C2CCC(N3CC(NC(=O)CNC(=O)c4cccc(C(F)(F)F)c4)C3)CC2)nc1 (centres unmarked) [Example 13, N-({1-[4-(5-Acetylamino-pyridin-2-yl)-cyclohexyl]-azetidin-3-ylcarbamoyl}-methyl)-3-trifluoromethyl-benzamide]
18 | 7.05 | Nc1cccc(C2CCC(N3CC(NC(=O)CNC(=O)c4ccc(F)c(C(F)(F)F)c4)C3)CC2)n1 (centres unmarked) [Example 28, N-({1-[4-(6-Amino-pyridin-2-yl)-cyclohexyl]-azetidin-3-ylcarbamoyl}-methyl)-4-fluoro-3-trifluoromethyl-benzamide]
19 | 7.07 | Nc1ccc(C2CCC(N3CC(NC(=O)CNC(=O)c4cccc(C(F)(F)F)c4)C3)CC2)nc1 (centres unmarked) [Example 21, N-({1-[4-(5-Amino-pyridin-2-yl)-cyclohexyl]-azetidin-3-ylcarbamoyl}-methyl)-3-trifluoromethyl-benzamide]
20 | 7.22 | O=C(CNC(=O)c1cccc(C(F)(F)F)c1)NC1CN(C2CCC(c3cccc(NC(=O)C(F)(F)F)n3)CC2)C1 (centres unmarked) [Example 24, N-[(1-{4-[6-(2,2,2-Trifluoro-acetylamino)-pyridin-2-yl]-cyclohexyl}-azetidin-3-ylcarbamoyl)-methyl]-3-trifluoromethyl-benzamide]
21 | 7.28 | O=C(CNC(=O)c1cccc(C(F)(F)F)c1)NC1CN(C2CCC(c3ccncc3O)CC2)C1 (centres unmarked) [Example 9, N-({1-[4-(3-Hydroxy-pyridin-4-yl)-cyclohexyl]-azetidin-3-ylcarbamoyl}-methyl)-3-trifluoromethyl-benzamide]
22 | 7.43 | CCn1cc(C2CCC(N3CC(NC(=O)CNC(=O)c4cccc(C(F)(F)F)c4)C3)CC2)ccc1=O (centres unmarked) [Example 39a, N-({1-[4-(1-Ethyl-6-oxo-1,6-dihydro-pyridin-3-yl)-cyclohexyl]-azetidin-3-ylcarbamoyl}-methyl)-3-trifluoromethyl-benzamide]
23 | 7.60 | COc1cnccc1C1CCC(N2CC(NC(=O)CNC(=O)c3cccc(C(F)(F)F)c3)C2)CC1 (centres unmarked) [Example 8, N-({1-[4-(3-Methoxy-pyridin-4-yl)-cyclohexyl]-azetidin-3-ylcarbamoyl}-methyl)-3-trifluoromethyl-benzamide]
